Assay results taken from patent US20250066346A1, “SOLID FORMS OF A BENZTHIAZOLE-PIPERAZINYL-OXAZOLE COMPOUND AND METHODS OF USE THEREOF” (Hepagene Therapeutics (HK) Limited, priority 2022, published 2025).
Where a name gives a salt, the structure may show the parent alone.

Legend:
Format in all cases: physicochemical
[1] = Form conversion by variable-temperature XRPD (VT-XRPD); details: for form after exposing to ambient conditions: ambient conditions for about 10 min; for form change after heating to 120° C. and cooling to 30° C.: with N2 protection, VT-XRPD
Experimental: […] 22.
Based on data above, it would convert to dehydrate state (HCl salt Form C) at low humidity and back to hydrate at high humidity.
HBr salt Form E was observed after N2 purging HBr salt Form D for 20 min at 30° C. via variable-temperature XRPD (VT-XRPD) shown in FIG. 23.
Based on data above, it would convert to dehydrate state (HBr salt Form E) at low humidity and back to hydrate at high humidity.

[2] = Kinetic solubility in water and bio-relevant media (SGF, FaSSIF, FeSSIF) at 37° C.; parameters: key to FC: form change: Yes: form changed; No: form not changed; details: for pH: filtered supernatant
Experimental: Agilent 1260 HPLC was utilized and detailed chromatographic conditions are provided in Tables 3 and 4 for purity and solubility test, respectively.
About 20 mg of free base (form A) HCl salt (form B), and HBr salt (form D) were added to a 5-mL glass vials followed by the addition of 4 mL of the corresponding medium/solvent into each glass vial to form a suspension. The vials were capped and rolled at 37° C. (25 rpm). Samples were removed (1 mL) at 1 h, 4 h, and 24 h and centrifuged (14000 rpm, 2 min, room temperature). The supernatant was filtered through 0.22 μm syringe filter (first few drops of filtrate were discarded) for HPLC solubility and pH tests (Table 15). The residual solids were analyzed by XRPD.

[3] = Solid state stability (XRPD for physical stability, HPLC purity for chemical stability); details: for Purity/initial purity: HPLC; for Form change: XRPD
Description: All the samples were characterized by XRPD for physical stability and HPLC purity for chemical stability evaluation (Table 16).

[4] = Hygroscopicity by dynamic vapor sorption (DVS) at 25° C.
Experimental: DVS was measured via a SMS (Surface Measurement Systems) DVS Intrinsic. The relative humidity at 25° C. was calibrated against deliquescence point of LiCl, Mg(NO3)2 and KCl.

What does the source list for `COc1cc(C(=O)O)cc2sc(N3CCN(Cc4c(-c5c(Cl)cccc5Cl)noc4C4CC4)C[C@H]3C)nc12` [Form C, (R)-2-(4-((5-cyclopropyl-3-(2,6-dichlorophenyl)isoxazol-4-yl)methyl)-2-methylpiperazin-1-yl)-4-methoxybenzo[d]thiazole-6-carboxylic acid]?
form after exposing to ambient conditions [1]: HCl salt Form B was re-obtained; form change after heating to 120° C. and cooling to 30° C. [1]: no form change occurred

Which results are given for `COc1cc(C(=O)O)cc2sc(N3CCN(Cc4c(-c5c(Cl)cccc5Cl)noc4C4CC4)C[C@H]3C)nc12` [Form E, (R)-2-(4-((5-cyclopropyl-3-(2,6-dichlorophenyl)isoxazol-4-yl)methyl)-2-methylpiperazin-1-yl)-4-methoxybenzo[d]thiazole-6-carboxylic acid]?
form after exposing to ambient conditions [1]: HBr salt Form D was re-obtained; form change after heating to 120° C. and cooling to 30° C. [1]: no form change occurred

Which “solubility in FaSSIF and FeSSIF (in words)” value [2] does the source give for `COc1cc(C(=O)O)cc2sc(N3CCN(Cc4c(-c5c(Cl)cccc5Cl)noc4C4CC4)C[C@H]3C)nc12` [HBr salt Form D, (R)-2-(4-((5-cyclopropyl-3-(2,6-dichlorophenyl)isoxazol-4-yl)methyl)-2-methylpiperazin-1-yl)-4-methoxybenzo[d]thiazole-6-carboxylic acid] here?
Its value is “significant solubility improvement”.

And the “FC: form change” value ([2]; FaSSIF, 1 hr)?
The value was “No”.

What about the “S: solubility” value ([2]; FaSSIF, 1 hr) of the same compound?
The value was 320 µg/mL.

And the pH ([2]; FaSSIF, 1 hr)?
The pH was 6.3.

And the “FC: form change” value ([2]; FaSSIF, 4 hrs)?
Its value is “No”.

And the “S: solubility” value ([2]; FaSSIF, 4 hrs)?
The value was 460 µg/mL.

What about the pH ([2]; FaSSIF, 4 hrs) of the same compound?
The pH was 6.3.

What about the “FC: form change” value ([2]; FaSSIF, 24 hrs) of the same compound?
The value was “No”.

What about the “S: solubility” value ([2]; FaSSIF, 24 hrs) of the same compound?
Its value is 640 µg/mL.

And the pH ([2]; FaSSIF, 24 hrs)?
The pH was 6.3.

What about the “FC: form change” value ([2]; FeSSIF, 1 hr) of the same compound?
The value was “No”.

And the “S: solubility” value ([2]; FeSSIF, 1 hr)?
Its value is 660 µg/mL.

What about the pH ([2]; FeSSIF, 1 hr) of the same compound?
Its pH is 5.1.

What about the “FC: form change” value ([2]; FeSSIF, 4 hrs) of the same compound?
The value was “No”.

What about the “S: solubility” value ([2]; FeSSIF, 4 hrs) of the same compound?
The value was 710 µg/mL.

And the pH ([2]; FeSSIF, 4 hrs)?
Its pH is 5.1.

What about the “FC: form change” value ([2]; FeSSIF, 24 hrs) of the same compound?
The value was “No”.

What about the “S: solubility” value ([2]; FeSSIF, 24 hrs) of the same compound?
The value was 780 µg/mL.

What about the pH ([2]; FeSSIF, 24 hrs) of the same compound?
Its pH is 5.0.

And the “FC: form change” value ([2]; H2O, 1 hr)?
Its value is “No”.

What about the “S: solubility” value ([2]; H2O, 1 hr) of the same compound?
The value was 0.6 µg/mL.

What about the pH ([2]; H2O, 1 hr) of the same compound?
The pH was 3.0.

What about the “FC: form change” value ([2]; H2O, 4 hrs) of the same compound?
The value was “No”.

What about the “S: solubility” value ([2]; H2O, 4 hrs) of the same compound?
The value was 0.7 µg/mL.

And the pH ([2]; H2O, 4 hrs)?
The pH was 3.0.

And the “FC: form change” value ([2]; H2O, 24 hrs)?
The value was “No”.

What about the “S: solubility” value ([2]; H2O, 24 hrs) of the same compound?
Its value is 0.6 µg/mL.

What about the pH ([2]; H2O, 24 hrs) of the same compound?
Its pH is 3.0.

And the “FC: form change” value ([2]; SGF, 1 hr)?
Its value is “No”.

What about the “S: solubility” value ([2]; SGF, 1 hr) of the same compound?
Its value is 31 µg/mL.

What about the pH ([2]; SGF, 1 hr) of the same compound?
The pH was 1.9.

What about the “FC: form change” value ([2]; SGF, 4 hrs) of the same compound?
Its value is “No”.

What about the “S: solubility” value ([2]; SGF, 4 hrs) of the same compound?
Its value is 30 µg/mL.

What about the pH ([2]; SGF, 4 hrs) of the same compound?
The pH was 1.9.

And the “FC: form change” value ([2]; SGF, 24 hrs)?
The value was “Yes”.

And the “S: solubility” value ([2]; SGF, 24 hrs)?
The value was 43 µg/mL.

What about the pH ([2]; SGF, 24 hrs) of the same compound?
Its pH is 1.7.

And the “solubility in SGF, FaSSIF, and FeSSIF compared with free base (form A) and HCl salt (form B)” value ([2]; SGF, FaSSIF, FeSSIF)?
The value was “improved solubility”.

What about the “solubility in water, ranking among form A, form B, form D” value ([2]; water) of the same compound?
The value was “lowest solubility”.

And the Purity/initial purity ([3]; 25° C./60% RH/1 week)?
Its Purity/initial purity is 99.9%.

What about the Form change ([3]; 25° C./60% RH/1 week) of the same compound?
Its Form change is “No”.

And the Purity/initial purity ([3]; 40° C./75% RH/1 week)?
Its Purity/initial purity is 99.9%.

What about the Form change ([3]; 40° C./75% RH/1 week) of the same compound?
Its Form change is “No”.

And the “HPLC purity after storage (in words)” value ([3]; 80° C. for 1 day)?
The value was “decreased”.

What about the Purity/initial purity ([3]; 80° C./1 day) of the same compound?
The Purity/initial purity was 99.5%.

What about the Form change ([3]; 80° C./1 day) of the same compound?
Its Form change is “No”.

What about the “form change (in words)” value ([3]; all test conditions) of the same compound?
Its value is “no form change was observed”.

And the water uptake ([4]; in the range of 0% RH to 20% RH, platform between 20% RH and 80% RH)?
Its water uptake is 2.6%.

For `COc1cc(C(=O)O)cc2sc(N3CCN(Cc4c(-c5c(Cl)cccc5Cl)noc4C4CC4)C[C@H]3C)nc12` [HCl salt Form B, (R)-2-(4-((5-cyclopropyl-3-(2,6-dichlorophenyl)isoxazol-4-yl)methyl)-2-methylpiperazin-1-yl)-4-methoxybenzo[d]thiazole-6-carboxylic acid], which “solubility in FaSSIF and FeSSIF (in words)” value [2] is on record?
The value was “significant solubility improvement”.

And the “FC: form change” value ([2]; FaSSIF, 1 hr)?
The value was “No”.

What about the “S: solubility” value ([2]; FaSSIF, 1 hr) of the same compound?
Its value is 290 µg/mL.

What about the pH ([2]; FaSSIF, 1 hr) of the same compound?
Its pH is 6.5.

What about the “FC: form change” value ([2]; FaSSIF, 4 hrs) of the same compound?
Its value is “No”.

And the “S: solubility” value ([2]; FaSSIF, 4 hrs)?
Its value is 420 µg/mL.

What about the pH ([2]; FaSSIF, 4 hrs) of the same compound?
The pH was 6.5.

What about the “FC: form change” value ([2]; FaSSIF, 24 hrs) of the same compound?
Its value is “No”.

And the “S: solubility” value ([2]; FaSSIF, 24 hrs)?
Its value is 570 µg/mL.

What about the pH ([2]; FaSSIF, 24 hrs) of the same compound?
Its pH is 6.4.

And the “FC: form change” value ([2]; FeSSIF, 1 hr)?
Its value is “No”.

What about the “S: solubility” value ([2]; FeSSIF, 1 hr) of the same compound?
The value was 480 µg/mL.

And the pH ([2]; FeSSIF, 1 hr)?
The pH was 5.1.

And the “FC: form change” value ([2]; FeSSIF, 4 hrs)?
The value was “No”.

What about the “S: solubility” value ([2]; FeSSIF, 4 hrs) of the same compound?
Its value is 480 µg/mL.

And the pH ([2]; FeSSIF, 4 hrs)?
The pH was 5.0.

What about the “FC: form change” value ([2]; FeSSIF, 24 hrs) of the same compound?
The value was “No”.

And the “S: solubility” value ([2]; FeSSIF, 24 hrs)?
Its value is 500 µg/mL.

What about the pH ([2]; FeSSIF, 24 hrs) of the same compound?
Its pH is 5.0.

What about the “FC: form change” value ([2]; H2O, 1 hr) of the same compound?
The value was “No”.

What about the “S: solubility” value ([2]; H2O, 1 hr) of the same compound?
Its value is 4.9 µg/mL.

And the pH ([2]; H2O, 1 hr)?
The pH was 6.1.

And the “FC: form change” value ([2]; H2O, 4 hrs)?
The value was “No”.

And the “S: solubility” value ([2]; H2O, 4 hrs)?
Its value is 5.6 µg/mL.

What about the pH ([2]; H2O, 4 hrs) of the same compound?
Its pH is 5.9.

And the “FC: form change” value ([2]; H2O, 24 hrs)?
The value was “No”.

What about the “S: solubility” value ([2]; H2O, 24 hrs) of the same compound?
The value was 6.1 µg/mL.

And the pH ([2]; H2O, 24 hrs)?
The pH was 6.4.

And the “FC: form change” value ([2]; SGF, 1 hr)?
Its value is “No”.

And the “S: solubility” value ([2]; SGF, 1 hr)?
Its value is 61 µg/mL.

And the pH ([2]; SGF, 1 hr)?
The pH was 1.8.

And the “FC: form change” value ([2]; SGF, 4 hrs)?
Its value is “No”.

And the “S: solubility” value ([2]; SGF, 4 hrs)?
The value was 48 µg/mL.

And the pH ([2]; SGF, 4 hrs)?
Its pH is 1.9.

What about the “FC: form change” value ([2]; SGF, 24 hrs) of the same compound?
Its value is “Yes”.

What about the “S: solubility” value ([2]; SGF, 24 hrs) of the same compound?
The value was 39 µg/mL.

And the pH ([2]; SGF, 24 hrs)?
Its pH is 1.8.

And the Purity/initial purity ([3]; 25° C./60% RH/1 week)?
The Purity/initial purity was 100.0%.

What about the Form change ([3]; 25° C./60% RH/1 week) of the same compound?
Its Form change is “No”.

And the Purity/initial purity ([3]; 40° C./75% RH/1 week)?
The Purity/initial purity was 100.0%.

What about the Form change ([3]; 40° C./75% RH/1 week) of the same compound?
Its Form change is “No”.

And the “solid state stability (overall, in words)” value ([3]; 80° C./1 day, 25° C./60% RH/1 week, 40° C./75% RH/1 week)?
Its value is “good solid state stability”.

And the Purity/initial purity ([3]; 80° C./1 day)?
The Purity/initial purity was 100.0%.

And the Form change ([3]; 80° C./1 day)?
Its Form change is “No”.

And the water uptake ([4]; in the range of 0% RH to 30% RH, platform between 30% RH and 95% RH)?
The water uptake was 2.5%.
